Test results taken from ChEMBL document CHEMBL1275395, “Endoperoxide carbonyl falcipain 2/3 inhibitor hybrids: toward combination chemotherapy of malaria through a single chemical entity” (J Med Chem, 2010).
*1 amine or outer side, *2 acyl side, *3 side chain or, on linkers, in order; H or OH if unused. Where a SMILES comes first, the peptide text is derived from it. [ ]: non-standard residue; d: D form. The star is where a group is joined. hPhe = N[C@@H](CCc1ccccc1)C(=O)O; Morpholide = C1CN(*)CCO1; Cbz = O=C(OCc1ccccc1)*; CO = O=C([*:1])[*:2]

How the values were obtained:
[1] = Inhibition of Plasmodium falciparum recombinant falcipain-3
[2] = Inhibition of Plasmodium falciparum recombinant falcipain-2
[3] = test system: Plasmodium falciparum; assay: Antimalarial activity against Plasmodium falciparum 3D7 infected in human erythrocytes after 4 hrs; format: functional, organism-based; settings: 3D7, 4 h

Compound	IC50 [1] [nM]	IC50 [2] [nM]	IC50 [3] [nM]
COCC(=O)[C@H](CCc1ccccc1)NC(=O)[C@H](CC(C)C)NC(=O)OCc1ccccc1	5600	7150	> 10000
COCC(=O)[C@H](Cc1ccccc1)NC(=O)[C@H](CC(C)C)NC(=O)OCc1ccccc1	8610	1970	> 10000
CCOCC(=O)[C@H](Cc1ccccc1)NC(=O)[C@H](CC(C)C)NC(=O)OCc1ccccc1	21600	1960	> 10000
CC(C)C[C@H](NC(=O)OCc1ccccc1)C(=O)N[C@@H](CCc1ccccc1)C(=O)COc1ccccc1	222	438	310
CC(C)C[C@H](NC(=O)OCc1ccccc1)C(=O)N[C@@H](CCc1ccccc1)[C@H]1OOC2(O1)C1CC3CC(C1)CC2C3 (stereo partly drawn)	947	425	55.5
COC[C@@]1([C@H](CCc2ccccc2)NC(=O)[C@H](CC(C)C)NC(=O)OCc2ccccc2)OOC2(O1)C1CC3CC(C1)CC2C3 (stereo partly drawn)	< 19800	< 11500	582
COC[C@@]1([C@@H](NC(=O)[C@H](CC(C)C)NC(=O)OCc2ccccc2)c2ccccc2)OOC2(O1)C1CC3CC(C1)CC2C3 (stereo partly drawn)	44200	1200	2560
CCOC[C@@]1([C@H](CCc2ccccc2)NC(=O)[C@H](CC(C)C)NC(=O)OCc2ccccc2)OOC2(O1)C1CC3CC(C1)CC2C3 (stereo partly drawn)	< 24200	< 8670	572
CCOC[C@@]1([C@@H](NC(=O)[C@H](CC(C)C)NC(=O)OCc2ccccc2)c2ccccc2)OOC2(O1)C1CC3CC(C1)CC2C3 (stereo partly drawn)	> 25000	< 8580	
CC(C)C[C@@H](C(=O)N[C@@H](CCc1ccccc1)[C@H]1OOC2(O1)C1CC3CC(C1)CC2C3)N1CCOCC1 (stereo partly drawn)	332	510	35.3
CCOCC(=O)[C@H](CCc1ccccc1)NC(=O)[C@H](CC(C)C)NC(=O)OCc1ccccc1	853	2050	> 10000
CC(C)C[C@H](NC(=O)OCc1ccccc1)C(=O)N[C@H](C=O)CCc1ccccc1 (Cbz-Leu-[hPhe]-aldehyde)	199	1.4	27.1
CC(C)C[C@H](NC(=O)N1CCOCC1)C(=O)N[C@H](C=O)CCc1ccccc1 ({Morpholide-CO}-Leu-[hPhe]-aldehyde)	215	16.3	9.3
